According to patent US7060673B2, “Fusion peptide of human parathyroid hormone derived peptide and tat peptide, preparation thereof, and skin slimming cosmetic composition comprising the same” (LG Household and Health Care Ltd., priority 2001, dated 2006):

Assays:
[1] = test system: 3T3-L1 cell differentiated into adipocyte; assay: Lipolysis effects test (glycerol secretion by differentiated adipocytes); details: 24 hours, absorbency at 540 nm
[2] = test system: healthy adult women with local obesity or cellulite inside of a thigh; details: O/W emulsion coated on one leg for one month, control emulsion on the other leg; 5 women
Protocol: In order to examine slimming effects, clinical tests were conducted on 5 healthy adult women of ages 18˜46 with local obesity or cellulite inside of a thigh (Method of testing primary irritant substances 38(187): pp1500–1541).
The fusion peptide prepared in Example 1 was prepared in the form of an O/W emulsion and used in the test. A control (O/W emulsion without sample) was coated on one leg, and an O/W emulsion comprising the compound of Chemical Formula 1 of the present invention was coated on the other leg, for one month, and then the thickness of the lipid layer was quantified.

Compound	Lipolysis increase rate (%) ([1]; concentration 10^−5 M)	Lipolysis increase rate (%) ([1]; concentration 10^−6 M)	Lipolysis increase rate (%) ([1]; concentration 10^−7 M)	Lipolysis increase rate (%) ([1]; concentration 10^−8 M)	Lipolysis increase rate (%) ([1]; concentration 10^−5 M, listed as compound represented by the Chemical Formula 1)	lipid layer decrease [2]
CC(C)NCC(O)c1ccc(O)c(O)c1 (stereo not shown) [Isoproterenol, isoproterenol, reference compound]	12.5%	39.0%	34.5%	17.3%		
KKKKKKKKKGKH	43.4%	10.3%	17.4%	8.6%	43%	18%
